Data set [1] in a line: Physical stability of peptide analogues (Thioflavin T fibrillation). The conditions noted are these: maximum ThT signal normalized between hAMY maximum and buffer background; 40° C., shaking, four days; pH 7 per table title. It is filed as physicochemical. The method in brief: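 Maximum ThT emission at 480 nm, after LOESS smoothing, is given as percent of the span from buffer background to hAMY. Conditions: 50 mM buffer at pH 4 or 7, 4 μM dye, 40 °C, repeated shaking, readings every 10 min for four days.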

Data set [2] deals with T1, hAMY3 receptor (Homo sapiens, UniProt O60896+P30988).
T1 sequence (P30988 25-474): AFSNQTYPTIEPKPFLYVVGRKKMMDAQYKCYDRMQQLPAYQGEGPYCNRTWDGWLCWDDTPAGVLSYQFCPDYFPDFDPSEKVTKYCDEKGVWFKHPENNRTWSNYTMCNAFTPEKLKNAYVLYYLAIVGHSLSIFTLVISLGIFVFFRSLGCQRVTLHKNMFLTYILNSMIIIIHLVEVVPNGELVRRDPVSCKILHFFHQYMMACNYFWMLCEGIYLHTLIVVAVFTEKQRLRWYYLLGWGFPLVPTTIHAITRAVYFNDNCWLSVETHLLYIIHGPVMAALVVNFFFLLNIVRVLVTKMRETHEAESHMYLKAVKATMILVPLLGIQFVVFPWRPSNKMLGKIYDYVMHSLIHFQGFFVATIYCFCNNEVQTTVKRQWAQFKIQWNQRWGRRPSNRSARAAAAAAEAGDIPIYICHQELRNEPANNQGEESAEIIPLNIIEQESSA
T1 sequence (O60896 24-148 partner): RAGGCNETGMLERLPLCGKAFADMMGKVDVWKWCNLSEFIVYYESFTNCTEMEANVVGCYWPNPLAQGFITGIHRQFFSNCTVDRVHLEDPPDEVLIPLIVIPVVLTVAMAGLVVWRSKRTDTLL
The data set can be described thus: cAMP assay for in vitro receptor activation, hAMY3-R. It is filed as cell-based. The settings on record: cAMP assay, hAMY3 receptor; read-out: hAMY3R EC50. The method in brief: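 Accumulated cAMP was detected by time-resolved FRET one hour after reagent addition. Beforehand, hAMY3-R-overexpressing monoclonal cells (2000/well, DPBS, 0.05% casein, 0.5 mM IBMX) received graded doses of compound for 30 min at room temperature; human amylin served as positive control.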
In general terms: Cyclic AMP is a second messenger, typically raised through Gs and lowered through Gi signalling.

Data set [3] has as its target hAM1 receptor (Homo sapiens, UniProt O60895+Q16602). The data set can be described thus: cAMP assay for in vitro receptor activation, hAM1-R. Format: cell-based. The settings on record: cAMP assay, hAM1 receptor; read-out: hAM1R EC50. The procedure, abridged:
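Stable hAM1 cells (monoclonal) plated 8000/well; buffer DPBS, 0.05% casein, 0.5 mM IBMX; cAMP read-out.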

Bridge positions count the residues as written; N and C are the ends. Square brackets hold non-standard residues; d marks the D form. Peptide text beside a SMILES is read from it. Hyp = O=C(O)[C@@H]1C[C@@H](O)CN1; Cit = NC(=O)NCCC[C@H](N)C(=O)O Some results are limits rather than exact numbers.

Chain of hAM1 receptor (Q16602 23-461): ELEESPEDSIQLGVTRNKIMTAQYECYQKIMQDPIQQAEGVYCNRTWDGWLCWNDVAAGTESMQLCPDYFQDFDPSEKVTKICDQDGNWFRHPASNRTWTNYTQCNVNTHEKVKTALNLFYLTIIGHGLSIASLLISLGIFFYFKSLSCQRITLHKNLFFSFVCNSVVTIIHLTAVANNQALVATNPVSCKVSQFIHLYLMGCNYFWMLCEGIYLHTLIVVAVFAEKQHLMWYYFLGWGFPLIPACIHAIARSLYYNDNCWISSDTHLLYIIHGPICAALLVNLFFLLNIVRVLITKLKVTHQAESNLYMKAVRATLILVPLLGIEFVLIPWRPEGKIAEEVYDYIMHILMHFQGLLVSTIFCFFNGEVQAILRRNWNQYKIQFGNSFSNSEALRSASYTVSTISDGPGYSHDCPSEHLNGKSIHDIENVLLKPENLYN
Chain of hAM1 receptor (O60895 43-175 partner): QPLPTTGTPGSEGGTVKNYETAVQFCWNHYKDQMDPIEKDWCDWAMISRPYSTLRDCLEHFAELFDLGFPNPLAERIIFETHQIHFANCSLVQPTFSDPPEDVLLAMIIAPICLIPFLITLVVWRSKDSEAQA

By EC50 is commonly meant the concentration needed to bring the measured effect to its halfway point. For the compound `CC[C@H](C)[C@H](NC(=O)[C@H](CCC(N)=O)NC(=O)[C@H](Cc1c[nH]cn1)NC(=O)[C@H](C)NC(=O)[C@H](CC(C)C)NC(=O)[C@H](CCCNC(N)=O)NC(=O)[C@H](CCC(N)=O)NC(=O)[C@@H](NC(=O)[C@@H](NC(=O)[C@@H]1CSSC[C@H](NC(=O)[C@@H](N)CCCCN)C(=O)N[C@@H](CC(N)=O)C(=O)N[C@@H]([C@@H](C)O)C(=O)N[C@@H](C)C(=O)N[C@@H]([C@@H](C)O)C(=O)N1)[C@@H](C)O)C(C)C)C(=O)N[C@@H](C)C(=O)N[C@@H](CCC(N)=O)C(=O)N[C@@H](Cc1ccccc1)C(=O)N[C@H](C(=O)N[C@@H](CC(=O)O)C(=O)N[C@@H](CCCCN)C(=O)N[C@@H](CC(=O)O)C(=O)N[C@@H](CCCCN)C(=O)N[C@@H](CC(=O)O)C(=O)N[C@@H](CC(N)=O)C(=O)N[C@H](C(=O)N[C@@H](C)C(=O)N1CCC[C@H]1C(=O)N1CCC[C@H]1C(=O)N[C@H](C(=O)N[C@@H](CC(N)=O)C(=O)N[C@H](C(=O)NCC(=O)N[C@@H](CO)C(=O)N[C@@H](CC(N)=O)C(=O)NCC(=O)N1C[C@H](O)C[C@H]1C(N)=O)C(C)C)[C@@H](C)O)C(C)C)[C@@H](C)O` [compound 246] (H-KCNTATCTVQ[Cit]LAHQIAQFTDKDKDNVAPPTNVGSNG[Hyp]-NH2; disulfide 2-7), the “Max ThT signal (%)” value in data set [1] was found to be 4.200%. Further, the EC50 in data set [2] was 10 pM; in data set [3], greater than 5 µM.
On the same counts, the results for `CC[C@H](C)[C@H](NC(=O)[C@H](CCC(N)=O)NC(=O)[C@H](CC(=O)O)NC(=O)[C@H](C)NC(=O)[C@H](CC(C)C)NC(=O)[C@H](CCCNC(N)=O)NC(=O)[C@H](C)NC(=O)[C@@H](NC(=O)[C@@H](NC(=O)[C@@H]1CSSC[C@H](NC(=O)[C@@H](N)CCCCN)C(=O)N[C@@H](CC(N)=O)C(=O)N[C@@H]([C@@H](C)O)C(=O)N[C@@H](CO)C(=O)N[C@@H]([C@@H](C)O)C(=O)N1)[C@@H](C)O)C(C)C)C(=O)N[C@H](C(=O)N[C@@H](CCC(N)=O)C(=O)N[C@@H](Cc1ccccc1)C(=O)N[C@@H](CO)C(=O)N[C@@H](CC(=O)O)C(=O)N[C@@H](CCCCN)C(=O)N[C@@H](CC(=O)O)C(=O)N[C@@H](CCCCN)C(=O)N[C@@H](C)C(=O)N[C@@H](CC(N)=O)C(=O)N[C@H](C(=O)N[C@@H](CO)C(=O)N1CCC[C@H]1C(=O)N1CCC[C@H]1C(=O)N[C@H](C(=O)N[C@@H](CCC(=O)O)C(=O)N[C@H](C(=O)NCC(=O)N1CCC[C@H]1C(=O)N[C@@H](CC(N)=O)C(=O)N[C@@H](CO)C(=O)N1C[C@H](O)C[C@H]1C(N)=O)C(C)C)[C@@H](C)O)C(C)C)[C@@H](C)O` [compound 247] (H-KCNTSTCTVA[Cit]LADQITQFSDKDKANVSPPTEVGPNS[Hyp]-NH2; disulfide 2-7; N-terminus assumed) are 1.350%, 4 pM and greater than 5 µM.
On the same counts, the results for `CC[C@H](C)[C@H](NC(=O)[C@H](CCC(N)=O)NC(=O)[C@H](Cc1c[nH]cn1)NC(=O)[C@H](C)NC(=O)[C@H](CC(C)C)NC(=O)[C@H](CCCNC(N)=O)NC(=O)[C@H](CCC(N)=O)NC(=O)[C@@H](NC(=O)[C@@H](NC(=O)[C@@H]1CSSC[C@H](NC(=O)[C@@H](N)CCCCN)C(=O)N[C@@H](CC(N)=O)C(=O)N[C@@H]([C@@H](C)O)C(=O)N[C@@H](C)C(=O)N[C@@H]([C@@H](C)O)C(=O)N1)[C@@H](C)O)C(C)C)C(=O)N[C@@H](Cc1ccc(O)cc1)C(=O)N[C@@H](CCC(N)=O)C(=O)N[C@@H](Cc1ccccc1)C(=O)N[C@@H](C)C(=O)N[C@@H](CC(=O)O)C(=O)N[C@@H](CCCCN)C(=O)N[C@@H](CC(=O)O)C(=O)N[C@@H](CCCCN)C(=O)N[C@@H](CC(=O)O)C(=O)N[C@@H](CC(N)=O)C(=O)N[C@H](C(=O)N[C@@H](C)C(=O)N1CCC[C@H]1C(=O)N1CCC[C@H]1C(=O)N[C@H](C(=O)N[C@@H](CC(N)=O)C(=O)N[C@H](C(=O)NCC(=O)N[C@@H](CO)C(=O)N[C@@H](CC(N)=O)C(=O)NCC(=O)N1C[C@H](O)C[C@H]1C(N)=O)C(C)C)[C@@H](C)O)C(C)C` [compound 249] (H-KCNTATCTVQ[Cit]LAHQIYQFADKDKDNVAPPTNVGSNG[Hyp]-NH2; disulfide 2-7; N-terminus assumed) are 15.600%, 6 pM and greater than 5 µM.
On the same counts, the results for `CC[C@H](C)[C@H](NC(=O)[C@H](CCC(N)=O)NC(=O)[C@H](Cc1c[nH]cn1)NC(=O)[C@H](C)NC(=O)[C@H](CC(C)C)NC(=O)[C@H](CCCNC(N)=O)NC(=O)[C@H](CCC(N)=O)NC(=O)[C@@H](NC(=O)[C@@H](NC(=O)[C@@H]1CSSC[C@H](NC(=O)[C@@H](N)CCCCN)C(=O)N[C@@H](CC(N)=O)C(=O)N[C@@H]([C@@H](C)O)C(=O)N[C@@H](C)C(=O)N[C@@H]([C@@H](C)O)C(=O)N1)[C@@H](C)O)C(C)C)C(=O)N[C@@H](Cc1ccc(O)cc1)C(=O)N[C@@H](CCC(N)=O)C(=O)N[C@@H](Cc1ccccc1)C(=O)N[C@H](C(=O)N[C@@H](CC(=O)O)C(=O)N[C@@H](CCCCN)C(=O)N[C@@H](CC(=O)O)C(=O)N[C@@H](C)C(=O)N[C@@H](CC(=O)O)C(=O)N[C@@H](CC(N)=O)C(=O)N[C@H](C(=O)N[C@@H](C)C(=O)N1CCC[C@H]1C(=O)N1CCC[C@H]1C(=O)N[C@H](C(=O)N[C@@H](CC(N)=O)C(=O)N[C@H](C(=O)NCC(=O)N[C@@H](CO)C(=O)N[C@@H](CC(N)=O)C(=O)NCC(=O)N1C[C@H](O)C[C@H]1C(N)=O)C(C)C)[C@@H](C)O)C(C)C)[C@@H](C)O` [compound 250] (H-KCNTATCTVQ[Cit]LAHQIYQFTDKDADNVAPPTNVGSNG[Hyp]-NH2; disulfide 2-7; N-terminus assumed) are 6.400%, 11 pM and greater than 5 µM.
With `CC[C@H](C)[C@H](NC(=O)[C@H](CCC(N)=O)NC(=O)[C@H](Cc1c[nH]cn1)NC(=O)[C@H](C)NC(=O)[C@H](CC(C)C)NC(=O)[C@H](CCCNC(N)=O)NC(=O)[C@H](CCC(N)=O)NC(=O)[C@@H](NC(=O)[C@@H](NC(=O)[C@@H]1CSSC[C@H](NC(=O)[C@@H](N)CCCCN)C(=O)N[C@@H](CC(N)=O)C(=O)N[C@@H]([C@@H](C)O)C(=O)N[C@@H](C)C(=O)N[C@@H]([C@@H](C)O)C(=O)N1)[C@@H](C)O)C(C)C)C(=O)N[C@@H](Cc1ccc(O)cc1)C(=O)N[C@@H](CCC(N)=O)C(=O)N[C@@H](Cc1ccccc1)C(=O)N[C@H](C(=O)N[C@@H](CC(=O)O)C(=O)N[C@@H](CCCCN)C(=O)N[C@@H](CC(=O)O)C(=O)N[C@@H](CCCCN)C(=O)N[C@@H](CC(=O)O)C(=O)N[C@@H](CC(N)=O)C(=O)N[C@@H](C)C(=O)N[C@@H](C)C(=O)N1CCC[C@H]1C(=O)N1CCC[C@H]1C(=O)N[C@H](C(=O)N[C@@H](CC(N)=O)C(=O)N[C@H](C(=O)NCC(=O)N[C@@H](CO)C(=O)N[C@@H](CC(N)=O)C(=O)NCC(=O)N1C[C@H](O)C[C@H]1C(N)=O)C(C)C)[C@@H](C)O)[C@@H](C)O` [compound 251] (H-KCNTATCTVQ[Cit]LAHQIYQFTDKDKDNAAPPTNVGSNG[Hyp]-NH2; disulfide 2-7; N-terminus assumed), in data set [1], the “Max ThT signal (%)” value is listed as 10.600%. Moreover, the EC50 in data set [2] is 6 pM; in data set [3] it was greater than 5 µM.
For `CC[C@H](C)[C@H](NC(=O)[C@H](CCC(N)=O)NC(=O)[C@H](Cc1c[nH]cn1)NC(=O)[C@H](C)NC(=O)[C@H](CC(C)C)NC(=O)[C@H](CCCNC(N)=O)NC(=O)[C@H](CCC(N)=O)NC(=O)[C@@H](NC(=O)[C@@H](NC(=O)[C@@H]1CSSC[C@H](NC(=O)[C@@H](N)CCCCN)C(=O)N[C@@H](CC(N)=O)C(=O)N[C@@H]([C@@H](C)O)C(=O)N[C@@H](C)C(=O)N[C@@H]([C@@H](C)O)C(=O)N1)[C@@H](C)O)C(C)C)C(=O)N[C@@H](Cc1ccc(O)cc1)C(=O)N[C@@H](CCC(N)=O)C(=O)N[C@@H](Cc1ccccc1)C(=O)N[C@H](C(=O)N[C@@H](CC(=O)O)C(=O)N[C@@H](CCCCN)C(=O)N[C@@H](CC(=O)O)C(=O)N[C@@H](CCCCN)C(=O)N[C@@H](CC(=O)O)C(=O)N[C@@H](CC(N)=O)C(=O)N[C@H](C(=O)N[C@@H](C)C(=O)N1CCC[C@H]1C(=O)N[C@@H](C)C(=O)N[C@H](C(=O)N[C@@H](CC(N)=O)C(=O)N[C@H](C(=O)NCC(=O)N[C@@H](CO)C(=O)N[C@@H](CC(N)=O)C(=O)NCC(=O)N1C[C@H](O)C[C@H]1C(N)=O)C(C)C)[C@@H](C)O)C(C)C)[C@@H](C)O` [compound 252] (H-KCNTATCTVQ[Cit]LAHQIYQFTDKDKDNVAPATNVGSNG[Hyp]-NH2; disulfide 2-7; N-terminus assumed) the same measures were 27.550%, 6 pM and greater than 5 µM.

Values taken from patent US12139520B2 (priority 2020, dated 2024).
